ChEMBL document CHEMBL3351443, “Development of 3-hydroxycinnamamide-based HDAC inhibitors with potent in vitro and in vivo anti-tumor activity” (Eur J Med Chem, 2015)

Columns and labels:
[1] = molecular target: Histone deacetylase; experiment: Inhibition of HDAC in human HeLa cell extract using Boc-Lys (acetyl)-AMC as substrate incubated for 10 mins prior to substrate addition measured after 30 mins by fluorescence assay; format: protein assay
[2] = Antiproliferative activity against human U266 cells after 48 hrs by MTT assay; format: functional, cell-based; details: U-266, 48 h
[3] = molecular target: T1, Histone deacetylase 8 (Homo sapiens, UniProt Q9BY41); experiment: Inhibition of HDAC8 (unknown origin)
T1 sequence (Q9BY41 whole entry): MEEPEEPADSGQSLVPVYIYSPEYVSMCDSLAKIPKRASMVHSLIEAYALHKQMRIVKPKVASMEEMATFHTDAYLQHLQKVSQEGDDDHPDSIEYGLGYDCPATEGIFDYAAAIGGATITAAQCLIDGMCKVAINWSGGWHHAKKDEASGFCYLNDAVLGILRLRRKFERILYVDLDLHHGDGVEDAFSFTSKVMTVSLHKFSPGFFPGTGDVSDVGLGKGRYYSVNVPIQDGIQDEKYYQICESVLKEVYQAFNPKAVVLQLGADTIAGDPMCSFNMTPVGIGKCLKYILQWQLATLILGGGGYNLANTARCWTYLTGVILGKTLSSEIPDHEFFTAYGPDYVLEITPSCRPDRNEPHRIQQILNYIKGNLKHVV

[4] = molecular target: Histone deacetylase 1 (Homo sapiens, UniProt Q13547); experiment: Inhibition of HDAC1 (unknown origin)
Chain of Histone deacetylase 1 (Q13547 whole entry): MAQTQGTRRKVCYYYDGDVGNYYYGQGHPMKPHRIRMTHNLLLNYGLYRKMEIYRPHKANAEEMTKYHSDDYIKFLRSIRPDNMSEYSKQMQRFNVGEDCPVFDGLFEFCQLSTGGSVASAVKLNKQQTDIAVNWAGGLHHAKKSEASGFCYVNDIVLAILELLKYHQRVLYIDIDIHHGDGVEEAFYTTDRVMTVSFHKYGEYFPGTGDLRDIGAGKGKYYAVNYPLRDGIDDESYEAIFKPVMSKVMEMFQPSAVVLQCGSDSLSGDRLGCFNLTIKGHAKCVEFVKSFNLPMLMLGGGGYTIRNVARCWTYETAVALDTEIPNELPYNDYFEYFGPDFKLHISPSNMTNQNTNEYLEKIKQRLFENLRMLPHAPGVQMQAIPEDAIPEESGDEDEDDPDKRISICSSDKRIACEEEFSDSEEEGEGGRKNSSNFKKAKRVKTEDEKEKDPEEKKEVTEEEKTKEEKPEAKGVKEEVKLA

[5] = molecular target: Histone deacetylase 4 (Homo sapiens, UniProt P56524); experiment: Inhibition of HDAC4 (unknown origin)
Chain of Histone deacetylase 4 (P56524 whole entry): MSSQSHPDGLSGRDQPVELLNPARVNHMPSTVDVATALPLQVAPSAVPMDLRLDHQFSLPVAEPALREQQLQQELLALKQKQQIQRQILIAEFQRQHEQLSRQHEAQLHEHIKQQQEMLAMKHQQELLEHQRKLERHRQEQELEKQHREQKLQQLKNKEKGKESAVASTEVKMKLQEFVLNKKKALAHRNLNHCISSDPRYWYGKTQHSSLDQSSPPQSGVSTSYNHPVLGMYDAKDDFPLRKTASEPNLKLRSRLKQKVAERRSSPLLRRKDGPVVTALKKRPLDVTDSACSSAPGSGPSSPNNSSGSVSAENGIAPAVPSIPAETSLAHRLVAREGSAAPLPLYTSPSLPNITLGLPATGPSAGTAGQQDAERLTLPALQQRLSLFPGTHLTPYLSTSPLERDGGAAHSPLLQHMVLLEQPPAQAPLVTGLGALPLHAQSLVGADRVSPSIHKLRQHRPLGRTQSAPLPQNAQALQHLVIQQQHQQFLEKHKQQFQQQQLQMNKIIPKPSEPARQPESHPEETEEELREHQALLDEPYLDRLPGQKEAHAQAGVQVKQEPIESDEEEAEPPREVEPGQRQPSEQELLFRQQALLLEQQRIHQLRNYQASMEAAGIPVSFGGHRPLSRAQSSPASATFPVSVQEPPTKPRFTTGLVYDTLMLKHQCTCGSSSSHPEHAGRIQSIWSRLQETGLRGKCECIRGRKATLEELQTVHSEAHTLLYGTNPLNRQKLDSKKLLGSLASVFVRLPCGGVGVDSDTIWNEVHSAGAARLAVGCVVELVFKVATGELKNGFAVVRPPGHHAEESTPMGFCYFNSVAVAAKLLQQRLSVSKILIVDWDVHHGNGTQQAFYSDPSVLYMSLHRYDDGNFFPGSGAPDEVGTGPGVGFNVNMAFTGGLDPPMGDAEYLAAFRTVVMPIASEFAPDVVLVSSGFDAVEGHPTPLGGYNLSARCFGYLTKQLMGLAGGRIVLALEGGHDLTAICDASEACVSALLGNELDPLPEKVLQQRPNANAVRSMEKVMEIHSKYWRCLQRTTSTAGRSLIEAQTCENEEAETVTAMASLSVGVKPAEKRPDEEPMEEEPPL

[6] = molecular target: T2, Histone deacetylase 11 (Homo sapiens, UniProt Q96DB2); experiment: Inhibition of HDAC11 (unknown origin)
T2 sequence (Q96DB2 whole entry): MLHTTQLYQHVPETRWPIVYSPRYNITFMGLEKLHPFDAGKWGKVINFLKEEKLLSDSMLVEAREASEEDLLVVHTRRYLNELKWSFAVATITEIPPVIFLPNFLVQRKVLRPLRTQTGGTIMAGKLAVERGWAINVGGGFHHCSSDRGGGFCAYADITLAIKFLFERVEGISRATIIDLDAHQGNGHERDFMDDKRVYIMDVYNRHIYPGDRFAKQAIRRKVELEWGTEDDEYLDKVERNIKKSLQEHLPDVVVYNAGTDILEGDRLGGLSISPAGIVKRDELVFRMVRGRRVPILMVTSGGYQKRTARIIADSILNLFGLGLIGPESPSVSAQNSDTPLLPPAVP

[7] = molecular target: Histone deacetylase 2 (Homo sapiens, UniProt Q92769); experiment: Inhibition of HDAC2 (unknown origin)
Chain of Histone deacetylase 2 (Q92769 whole entry): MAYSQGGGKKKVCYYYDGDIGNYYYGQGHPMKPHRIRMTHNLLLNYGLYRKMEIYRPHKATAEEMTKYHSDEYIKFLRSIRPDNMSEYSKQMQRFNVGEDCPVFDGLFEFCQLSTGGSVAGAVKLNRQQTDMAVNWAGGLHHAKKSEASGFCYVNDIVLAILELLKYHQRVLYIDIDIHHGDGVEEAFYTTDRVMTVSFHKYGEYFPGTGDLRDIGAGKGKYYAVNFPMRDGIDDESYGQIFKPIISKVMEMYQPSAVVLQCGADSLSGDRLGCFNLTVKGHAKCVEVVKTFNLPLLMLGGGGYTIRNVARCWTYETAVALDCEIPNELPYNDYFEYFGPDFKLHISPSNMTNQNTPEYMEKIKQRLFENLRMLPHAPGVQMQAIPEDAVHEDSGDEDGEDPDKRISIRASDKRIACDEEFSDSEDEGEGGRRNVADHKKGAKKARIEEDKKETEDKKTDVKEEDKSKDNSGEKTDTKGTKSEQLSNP

[8] = molecular target: T3, Protein deacetylase HDAC6 (Homo sapiens, UniProt Q9UBN7); experiment: Inhibition of HDAC6 (unknown origin)
T3 sequence (Q9UBN7 whole entry): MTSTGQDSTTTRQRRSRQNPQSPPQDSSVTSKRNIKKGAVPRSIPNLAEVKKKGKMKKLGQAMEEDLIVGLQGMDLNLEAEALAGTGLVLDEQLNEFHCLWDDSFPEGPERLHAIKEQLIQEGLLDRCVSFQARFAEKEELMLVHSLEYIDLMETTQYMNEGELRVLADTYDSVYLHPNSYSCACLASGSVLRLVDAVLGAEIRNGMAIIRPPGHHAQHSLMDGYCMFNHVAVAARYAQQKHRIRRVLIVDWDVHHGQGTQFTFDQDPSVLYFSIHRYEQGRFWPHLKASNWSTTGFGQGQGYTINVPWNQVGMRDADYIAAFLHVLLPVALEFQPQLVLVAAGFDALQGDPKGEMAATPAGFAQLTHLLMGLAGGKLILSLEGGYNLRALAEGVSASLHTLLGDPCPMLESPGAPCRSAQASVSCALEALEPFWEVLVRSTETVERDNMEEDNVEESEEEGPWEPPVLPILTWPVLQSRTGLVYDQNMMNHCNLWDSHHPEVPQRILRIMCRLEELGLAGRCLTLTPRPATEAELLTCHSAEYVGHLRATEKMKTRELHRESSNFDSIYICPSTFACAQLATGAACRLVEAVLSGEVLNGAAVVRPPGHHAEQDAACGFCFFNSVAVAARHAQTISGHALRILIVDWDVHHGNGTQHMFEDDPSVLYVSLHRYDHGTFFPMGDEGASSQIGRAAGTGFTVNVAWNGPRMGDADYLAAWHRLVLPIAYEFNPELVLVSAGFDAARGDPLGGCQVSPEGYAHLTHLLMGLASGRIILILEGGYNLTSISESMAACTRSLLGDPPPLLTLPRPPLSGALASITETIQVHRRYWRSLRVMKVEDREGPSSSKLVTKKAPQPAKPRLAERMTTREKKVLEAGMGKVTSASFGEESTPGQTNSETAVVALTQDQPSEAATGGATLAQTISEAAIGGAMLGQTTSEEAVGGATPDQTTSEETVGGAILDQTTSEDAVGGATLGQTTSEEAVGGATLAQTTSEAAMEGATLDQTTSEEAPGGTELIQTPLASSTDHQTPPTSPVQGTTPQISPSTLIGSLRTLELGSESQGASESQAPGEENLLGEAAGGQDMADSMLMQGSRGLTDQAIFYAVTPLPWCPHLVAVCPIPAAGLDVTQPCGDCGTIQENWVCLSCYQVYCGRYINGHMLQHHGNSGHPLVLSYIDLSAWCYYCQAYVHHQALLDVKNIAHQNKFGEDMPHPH

[9] = molecular target: Histone deacetylase 3 (Homo sapiens, UniProt O15379); experiment: Inhibition of HDAC3 (unknown origin)
Chain of Histone deacetylase 3 (O15379 whole entry): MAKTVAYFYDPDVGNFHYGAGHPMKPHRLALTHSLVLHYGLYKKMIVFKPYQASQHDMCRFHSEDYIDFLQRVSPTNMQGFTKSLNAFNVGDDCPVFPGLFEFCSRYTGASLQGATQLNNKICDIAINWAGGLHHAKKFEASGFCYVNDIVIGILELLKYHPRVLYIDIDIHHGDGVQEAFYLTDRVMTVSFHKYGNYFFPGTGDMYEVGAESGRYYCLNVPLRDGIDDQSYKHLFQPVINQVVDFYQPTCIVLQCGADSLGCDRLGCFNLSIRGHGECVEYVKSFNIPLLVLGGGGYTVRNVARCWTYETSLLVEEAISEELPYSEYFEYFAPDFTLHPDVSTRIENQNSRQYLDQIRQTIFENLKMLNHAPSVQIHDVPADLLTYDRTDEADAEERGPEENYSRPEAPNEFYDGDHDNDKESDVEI

[10] = system: U-937; experiment: Induction of apoptosis in human U937 cells assessed as late apoptotic cells at 1.5 uM after 24 hrs by annexin-V/propidium iodide staining-based flow cytometry (reference value: 2.77%); format: functional
[11] = system: U-937; experiment: Induction of apoptosis in human U937 cells assessed as early apoptotic cells at 1.5 uM after 24 hrs by annexin-V/propidium iodide staining-based flow cytometry (reference value: 3.81%); format: functional
[12] = Antiproliferative activity against human PC3 cells after 48 hrs by MTT assay; format: functional, cell-based; details: PC-3, 48 h
[13] = system: U-937; experiment: Induction of apoptosis in human U937 cells assessed as viable cells at 1.5 uM after 24 hrs by annexin-V/propidium iodide staining-based flow cytometry (reference value: 92.47%); format: functional
[14] = system: U-937; experiment: Induction of apoptosis in human U937 cells assessed as dead cells at 1.5 uM after 24 hrs by annexin-V/propidium iodide staining-based flow cytometry (reference value: 0.95%); format: functional
[15] = Antitumor activity against human U937 cells xenografted in athymic nude mouse at 120 mg/kg/day, po after 16 days relative to control; format: functional, U-937
[16] = system: U-937; experiment: Induction of apoptosis in human U937 cells assessed as apoptotic cells at 1.5 uM after 24 hrs by annexin-V/propidium iodide staining-based flow cytometry; format: functional
[17] = system: HEL; experiment: Antiproliferative activity against human HEL cells after 48 hrs by MTT assay; format: functional, cell-based
[18] = Antitumor activity against human U937 cells xenografted in athymic nude mouse assessed as tumor growth inhibition at 120 mg/kg/day, po after 16 days; format: functional; details: U-937, 384 h, read-out: TGI
[19] = Antiproliferative activity against human HCT116 cells after 48 hrs by MTT assay; format: functional, cell-based; details: HCT-116, 48 h
[20] = system: Mus musculus; experiment: Toxicity in athymic nude mouse xenografted with human U937 cells assessed as weight loss at 120 mg/kg/day, po after 16 days; format: organism-based, U-937; set-up: route oral; details: in vivo, 384 h
[21] = system: K562; experiment: Antiproliferative activity against human K562 cells after 48 hrs by MTT assay; format: functional, cell-based; details: K562, 48 h
[22] = Antiproliferative activity against human KG1 cells after 48 hrs by MTT assay; format: functional, cell-based; details: KG-1, 48 h
[23] = Antiproliferative activity against human HL60 cells after 48 hrs by MTT assay; format: functional, cell-based; details: HL-60, 48 h
[24] = system: MCF7; experiment: Antiproliferative activity against human MCF7 cells after 48 hrs by MTT assay; format: functional, cell-based; details: MCF7, 48 h
[25] = system: Mus musculus; experiment: Toxicity in athymic nude mouse xenografted with human U937 cells assessed as toxic sign in liver at 120 mg/kg/day, po after 16 days; format: organism-based, U-937; set-up: route oral; details: in vivo, 384 h
[26] = system: Mus musculus; experiment: Toxicity in athymic nude mouse xenografted with human U937 cells assessed as toxic sign in spleen at 120 mg/kg/day, po after 16 days; format: organism-based, U-937; set-up: route oral; details: in vivo, 384 h
[27] = system: A549; experiment: Antiproliferative activity against human A549 cells after 48 hrs by MTT assay; format: functional, cell-based; details: A549, 48 h
[28] = Antiproliferative activity against human U937 cells after 48 hrs by MTT assay; format: functional, cell-based; details: U-937, 48 h
[29] = system: MDA-MB-231; experiment: Antiproliferative activity against human MDA-MB-231 cells after 48 hrs by MTT assay; format: functional, cell-based; details: MDA-MB-231, 48 h

O=C(/C=C/c1cccc(OC[C@H](Cc2c[nH]c3ccccc23)NC(=O)c2cc(Cl)cc(Cl)c2)c1)NO
IC50 [1]: 779 nM | IC50 [2]: 3030 nM

Cc1ccc(C(=O)N[C@H](COc2cccc(/C=C/C(=O)NO)c2)Cc2c[nH]c3ccccc23)cc1
IC50 [1]: 218.7 nM | IC50 [2]: 390 nM

COc1cccc(C(=O)N[C@H](COc2cccc(/C=C/C(=O)NO)c2)Cc2c[nH]c3ccccc23)c1
IC50 [1]: 67.4 nM | IC50 [2]: 3090 nM

CC(NC(=O)OC(C)(C)C)C(=O)N[C@H](COc1cccc(/C=C/C(=O)NO)c1)Cc1c[nH]c2ccccc12 (stereo partly specified)
IC50 [1]: 861.5 nM | IC50 [2]: 6560 nM

O=C(/C=C/c1cccc(OC[C@H](Cc2c[nH]c3ccccc23)NC(=O)c2ccc(Br)cc2)c1)NO
IC50 [1]: 692.4 nM | IC50 [2]: 1390 nM

O=C(/C=C/c1cccc(OC[C@H](Cc2c[nH]c3ccccc23)NC(=O)CCCc2ccccc2)c1)NO
IC50 [1]: 498.6 nM | IC50 [2]: 3620 nM

O=C(/C=C/c1cccc(OC[C@H](Cc2c[nH]c3ccccc23)NC(=O)c2cccc(Cl)c2)c1)NO
IC50 [1]: 357.9 nM | IC50 [2]: 3080 nM

COc1ccccc1C(=O)N[C@H](COc1cccc(/C=C/C(=O)NO)c1)Cc1c[nH]c2ccccc12
IC50 [3]: 87.4 nM | IC50 [4]: 33.2 nM | IC50 [5]: 440 nM | IC50 [1]: 38.5 nM | IC50 [6]: 52.7 nM | IC50 [7]: 64.8 nM | IC50 [8]: 23.9 nM | IC50 [9]: 28.7 nM | IC50 [2]: 1430 nM

CC(C)(C)OC(=O)N[C@H](COc1cccc(/C=C/C(=O)NO)c1)Cc1c[nH]c2ccccc12
IC50 [1]: 917.4 nM | IC50 [2]: 4180 nM

O=C(/C=C/c1cccc(OC[C@H](Cc2c[nH]c3ccccc23)NC(=O)c2ccccc2)c1)NO
IC50 [1]: 421.4 nM | IC50 [2]: 1230 nM

O=C(/C=C/c1cccc(OC[C@H](Cc2c[nH]c3ccccc23)NC(=O)CCc2ccccc2)c1)NO
IC50 [1]: 464.5 nM | IC50 [2]: 6170 nM

O=C(/C=C/c1cccc(OC[C@H](Cc2c[nH]c3ccccc23)NC(=O)Cc2ccccc2)c1)NO
IC50 [1]: 447.7 nM | IC50 [2]: 6570 nM

O=C(/C=C/c1cccc(OC[C@H](Cc2c[nH]c3ccccc23)NC(=O)c2ccccc2Cl)c1)NO
IC50 [1]: 81.9 nM | IC50 [2]: 740 nM

O=C(/C=C/c1cccc(OC[C@H](Cc2c[nH]c3ccccc23)NC(=O)c2ccc(Cl)cc2Cl)c1)NO
IC50 [1]: 258.9 nM | IC50 [2]: 2500 nM

O=C(CCCCCCC(=O)Nc1ccccc1)NO [VORINOSTAT]
Activity [10]: 14.57% | Activity [11]: 6.65% | IC50 [12]: 3570 nM | Activity [13]: 72.62% | Activity [14]: 6.16% | T/C [15]: 71.7% | Activity [16]: 21.22%

O=C(/C=C/c1cccc(OC[C@H](Cc2c[nH]c3ccccc23)NC(=O)c2ccc(Cl)cc2)c1)NO
IC50 [2]: 1740 nM

CC(C)(C)OC(=O)NCC(=O)N[C@H](COc1cccc(/C=C/C(=O)NO)c1)Cc1c[nH]c2ccccc12
IC50 [1]: 886.4 nM | IC50 [2]: 8950 nM

COc1ccc(C(=O)N[C@H](COc2cccc(/C=C/C(=O)NO)c2)Cc2c[nH]c3ccccc23)cc1
IC50 [17]: 380 nM | inhibition in vivo at 120 mg/kg/day [18]: 42.7% | Activity [10]: 23.99% | IC50 [19]: 2310 nM | Activity [20]: Non-toxic | IC50 [21]: 3460 nM | IC50 [4]: 219 nM | IC50 [22]: 1080 nM | IC50 [23]: 3700 nM | IC50 [24]: 2490 nM | Activity [11]: 11.54% | IC50 [1]: 191.2 nM | IC50 [12]: 3880 nM | IC50 [7]: 865 nM | IC50 [8]: 93.8 nM | Activity [25]: Non-toxic | Activity [26]: Non-toxic | viability at 1.5 µM ([13]; Homo sapiens, U-937, 24 h, read-out: Activity): 57.5% | Activity [14]: 6.92% | T/C [15]: 56.4% | IC50 [9]: 224 nM | IC50 [27]: 4500 nM | Activity [16]: 35.53% | IC50 [28]: 360 nM | IC50 [29]: 970 nM | IC50 [2]: 410 nM
